Like-named read-outs stand apart in the source and are kept apart here.
Legend:
[1] = target: hKOR (Homo sapiens, UniProt P41145); assay: Radioligand binding assay (Eurofins Cerep), [3H]U69,593 displacement
[2] = target: hDOR (Homo sapiens, UniProt P41143); assay: Radioligand binding assay (Eurofins Cerep), [3H]DADLE displacement
[3] = target: T1, α2A adrenergic receptor (Homo sapiens, UniProt P08913); assay: Radioligand binding assay (Eurofins Cerep), [3H]RX 821002 displacement
T1 construct: Eurofins Cerep (contract screening)
T1 sequence (P08913 1-465): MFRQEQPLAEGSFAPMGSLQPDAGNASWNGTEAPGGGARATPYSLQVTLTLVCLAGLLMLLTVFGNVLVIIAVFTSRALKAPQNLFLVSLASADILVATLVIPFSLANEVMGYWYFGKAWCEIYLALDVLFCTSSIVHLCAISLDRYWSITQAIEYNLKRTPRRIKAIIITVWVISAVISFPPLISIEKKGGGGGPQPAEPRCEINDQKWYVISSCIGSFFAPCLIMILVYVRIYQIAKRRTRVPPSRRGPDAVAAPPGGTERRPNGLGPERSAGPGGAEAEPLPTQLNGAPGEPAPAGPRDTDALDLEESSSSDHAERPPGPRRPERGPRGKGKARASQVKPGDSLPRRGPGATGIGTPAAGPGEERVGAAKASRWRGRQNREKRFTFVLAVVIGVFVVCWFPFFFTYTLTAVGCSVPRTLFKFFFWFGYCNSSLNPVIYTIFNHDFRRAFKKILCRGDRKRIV

[4] = target: T2, hMOR (Homo sapiens, UniProt P35372); assay: Radioligand binding assay (Eurofins Cerep), [3H]DAMGO displacement
[5] = target: T2, hMOR; assay: Cyclic adenosine 3′,5′-monophosphate (cAMP) assay in hMOR-CHO cells; format: cell-based; details: N=1, control agonist DAMGO
[6] = Metabolic stability in rat liver microsomes; format: in vitro ADME; details: rat liver microsomes 1 mg/ml, substrate 1 μM, NADPH, 37° C.
Protocol: In vitro metabolic stability of each compound was determined using rat liver microsomes in triplicate. Verapamil was used as a positive control to check the activity of the microsomes. The incubation mixtures consisted of rat liver microsomes (1 mg microsomal protein/ml), substrate (1 μM), and reduced NADPH (1 mM) in a total volume of 0.4 ml potassium phosphate buffer (50 mM, pH 7.4). Reactions were initiated with the addition of NADPH and kept in an incubator shaker at 37° C. Aliquots of 25 μl were withdrawn at 0, 5, 10, 15, 30, and 60 min and mixed with 125 μl of acetonitrile with formic acid (0.1% v/v) containing phenacetin (50 ng/ml; internal standard) for the termination of the reaction. The samples were then vortex mixed and filtered through a […] 96-well membrane filtration plate under centrifugation at speed of 2000×g for 5 min at 4° C. The filtrates were subjected to UPLC-mass spectrometry (MS/MS) analysis.
The intrinsic clearance of the compounds was calculated using a half-life employing the ‘substrate depletion’ approach. The apparent half-life was calculated from the pseudo-first-order rate constants obtained by linear regression of log (concentration) and time plots. The in vitro intrinsic clearance of IFN was estimated using the formula: […]
Where k is the slope of the line obtained by plotting the natural logarithmic of the percentage of parent remaining versus time and V is the volume of incubation.
The in vitro intrinsic clearance was scaled to whole-organ (hepatic) in vivo intrinsic CL (CLint,H) using the scaling factors available in the literature using equation (Mahmood I. Application of allometric principles for the prediction of pharmacokinetics in human and veterinary drug development. Advanced drug delivery reviews, 2007, 59(11), 1177-1192)
MPPGL represents the microsomal protein per gram of Sprague Dawley rat liver (45 mg/g) and liver weight per kg body weight was 40 g/kg.

[7] = target: T2, hMOR; assay: cell-based; design: expressed in transfected cells; details: for Emax: CHO
[8] = target: T3, α2C adrenergic receptor (Homo sapiens, UniProt P18825); assay: Radioligand binding assay (Eurofins Cerep), [3H]RX 821002 displacement; details: Ki (nM ± SEM) a2C-AR, 3 independent experiments
T3 construct: Eurofins Cerep (contract screening)
T3 sequence (P18825 1-462): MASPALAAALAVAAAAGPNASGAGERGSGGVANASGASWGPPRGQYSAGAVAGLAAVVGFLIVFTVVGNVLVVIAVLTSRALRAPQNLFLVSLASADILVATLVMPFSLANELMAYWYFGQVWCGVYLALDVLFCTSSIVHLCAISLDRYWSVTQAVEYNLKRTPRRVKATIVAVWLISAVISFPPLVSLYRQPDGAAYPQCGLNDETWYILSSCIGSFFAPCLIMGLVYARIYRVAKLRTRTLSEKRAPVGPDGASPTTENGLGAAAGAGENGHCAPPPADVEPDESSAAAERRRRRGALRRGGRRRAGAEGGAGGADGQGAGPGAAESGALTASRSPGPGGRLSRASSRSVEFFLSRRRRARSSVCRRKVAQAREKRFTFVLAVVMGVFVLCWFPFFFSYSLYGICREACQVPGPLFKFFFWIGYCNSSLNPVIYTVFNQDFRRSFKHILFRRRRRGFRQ

T2 sequence (P35372 whole entry): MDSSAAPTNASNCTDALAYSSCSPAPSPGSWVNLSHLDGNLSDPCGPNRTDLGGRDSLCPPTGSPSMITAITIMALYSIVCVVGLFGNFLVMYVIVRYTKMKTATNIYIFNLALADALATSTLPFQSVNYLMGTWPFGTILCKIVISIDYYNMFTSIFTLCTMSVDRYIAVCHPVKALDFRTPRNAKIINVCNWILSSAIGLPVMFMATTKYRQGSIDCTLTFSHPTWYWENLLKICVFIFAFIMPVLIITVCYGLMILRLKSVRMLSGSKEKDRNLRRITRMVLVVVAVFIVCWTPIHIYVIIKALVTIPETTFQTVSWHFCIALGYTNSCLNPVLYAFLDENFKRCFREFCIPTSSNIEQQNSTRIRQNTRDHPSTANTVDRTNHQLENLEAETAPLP
Sequence of hDOR (P41143 whole entry): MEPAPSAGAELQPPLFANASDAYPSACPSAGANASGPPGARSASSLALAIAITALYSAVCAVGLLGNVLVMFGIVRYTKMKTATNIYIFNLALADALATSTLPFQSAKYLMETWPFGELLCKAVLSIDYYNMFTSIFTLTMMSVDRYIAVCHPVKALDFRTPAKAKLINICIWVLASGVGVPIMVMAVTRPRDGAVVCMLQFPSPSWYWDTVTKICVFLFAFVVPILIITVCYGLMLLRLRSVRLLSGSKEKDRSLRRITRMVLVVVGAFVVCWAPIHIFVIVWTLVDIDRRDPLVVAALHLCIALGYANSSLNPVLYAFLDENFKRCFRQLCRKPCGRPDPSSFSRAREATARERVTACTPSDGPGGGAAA
Sequence of hKOR (P41145 whole entry): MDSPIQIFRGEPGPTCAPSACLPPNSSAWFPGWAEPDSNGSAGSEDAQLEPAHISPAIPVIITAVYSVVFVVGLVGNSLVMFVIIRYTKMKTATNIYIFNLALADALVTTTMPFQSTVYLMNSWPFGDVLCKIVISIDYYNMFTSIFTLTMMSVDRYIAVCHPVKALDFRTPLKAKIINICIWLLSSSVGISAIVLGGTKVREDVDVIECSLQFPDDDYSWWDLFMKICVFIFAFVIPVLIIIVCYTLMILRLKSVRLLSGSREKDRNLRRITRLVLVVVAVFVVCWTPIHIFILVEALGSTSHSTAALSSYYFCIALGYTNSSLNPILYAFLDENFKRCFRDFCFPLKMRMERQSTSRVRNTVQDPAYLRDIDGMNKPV

CC[C@@H]1CN2CCc3c([nH]c4cccc(OC)c34)[C@@H]2C[C@@H]1/C(=C\OC)C(=O)N(C)C1CCCC1
Ki ([1]; Table A1, data summary #1, read-out: KOR Ki ± SEM): 4600 ± 132 nM | Ki ([1]; Table A4, data summary #2, read-out: KOR Ki ± SEM): 4600 ± 132 nM | Ki ([2]; Table A1, data summary #1, read-out: DOR Ki ± SEM): 9750 ± 452 nM | Ki ([2]; Table A4, data summary #2, read-out: DOR Ki ± SEM): 6930 ± 1340 nM | Ki ([3]; Table A4, data summary #2, read-out: Alpha2A Ki ± SEM): 510 ± 82 nM | Ki ([4]; Table A4, data summary #2, read-out: MOR Ki ± SEM): 68 ± 7 nM | Ki ([4]; read-out: Ki at hMOR): 67.8 nM | functional activity in cAMP assay [5]: antagonists | functional activity in cAMP assay ([5]; listed as SUSM 522): antagonist | RLM stability [6]: <5 min

COC(=O)CC1CCN(CCc2c[nH]c3ccccc23)CC1 [Compound 3-24]
Ki ([1]; Table 3-1, 3 independent experiments, read-out: Ki (nM ± SEM) KOR): > 10000 nM | Ki ([1]; Table 3-2, 3 independent experiments, read-out: Ki (nM ± SEM) KOR): > 10000 nM | Ki ([1]; Table 3-3, 3 independent experiments, read-out: Ki (nM ± SEM) KOR): > 10000 nM | Ki ([1]; Table 3-4, 3 independent experiments, read-out: Ki (nM ± SEM) KOR): > 10000 nM | Ki ([1]; Table 3-5, 3 independent experiments, read-out: Ki (nM ± SEM) KOR): > 10000 nM | Ki ([1]; Table 3-6, 3 independent experiments, read-out: Ki (nM ± SEM) KOR): > 10000 nM | Ki ([2]; Table 3-1, 3 independent experiments, read-out: Ki (nM ± SEM) DOR): > 10000 nM | Ki ([2]; Table 3-2, 3 independent experiments, read-out: Ki (nM ± SEM) DOR): > 10000 nM | Ki ([2]; Table 3-3, 3 independent experiments, read-out: Ki (nM ± SEM) DOR): > 10000 nM | Ki ([2]; Table 3-4, 3 independent experiments, read-out: Ki (nM ± SEM) DOR): > 10000 nM | Ki ([2]; Table 3-5, 3 independent experiments, read-out: Ki (nM ± SEM) DOR): > 10000 nM | Ki ([2]; Table 3-6, 3 independent experiments, read-out: Ki (nM ± SEM) DOR): > 10000 nM | Ki ([3]; Ki (nM ± SEM) a2A-AR, Table 3-1, 3 independent experiments): 1410 ± 122 nM | Ki ([3]; Ki (nM ± SEM) a2A-AR, Table 3-2, 3 independent experiments): 1410 ± 122 nM | Ki ([3]; Ki (nM ± SEM) a2A-AR, Table 3-3, 3 independent experiments): 1410 ± 122 nM | Ki ([3]; Ki (nM ± SEM) a2A-AR, Table 3-4, 3 independent experiments): 1410 ± 122 nM | Ki ([3]; Ki (nM ± SEM) a2A-AR, Table 3-6, 3 independent experiments): 1410 ± 122 nM | Ki ([3]; Ki (nM ± SEM) a2A-ar, Table 3-5, 3 independent experiments): 1410 ± 122 nM | SR: Selectivity Ratio (KiMOR/Kiα2A) ([4]; Table 3-1): 1.58 | Ki ([4]; Table 3-1, 3 independent experiments, read-out: Ki (nM ± SEM) MOR): 2230 ± 42.6 nM | SR: Selectivity Ratio (KiMOR/Kiα2A) ([4]; Table 3-2): 1.58 | Ki ([4]; Table 3-2, 3 independent experiments, read-out: Ki (nM ± SEM) MOR): 2230 ± 42.6 nM | SR: Selectivity Ratio (KiMOR/Kiα2A) ([4]; Table 3-3): 1.58 | Ki ([4]; Table 3-3, 3 independent experiments, read-out: Ki (nM ± SEM) MOR): 2230 ± 42.6 nM | SR: Selectivity Ratio (KiMOR/Kiα2A) ([4]; Table 3-4): 1.58 | Ki ([4]; Table 3-4, 3 independent experiments, read-out: Ki (nM ± SEM) MOR): 2230 ± 42.6 nM | SR: Selectivity Ratio (KiMOR/Kiα2A) ([4]; Table 3-5): 1.58 | Ki ([4]; Table 3-5, 3 independent experiments, read-out: Ki (nM ± SEM) MOR): 2230 ± 42.6 nM | SR: Selectivity Ratio (KiMOR/Kiα2A) ([4]; Table 3-6): 1.58 | Ki ([4]; Table 3-6, 3 independent experiments, read-out: Ki (nM ± SEM) MOR): 2230 ± 42.6 nM | Ki ([4]; Table 3-7, human MOR, read-out: MOR Ki (nM ± SEM)): 2230 ± 43 nM | functional character at MOR [7]: low, but measurable, partial agonist activity | Emax ([7]; read-out: MOR Emax ± SEM (%)): 23.8 ± 6.7% | Emax ([7]; read-out: Emax at MOR (FIG. 1)): 24% | EC50 ([7]; read-out: MOR EC50 ± SEM): 1220 nM | Ki ([8]; Table 3-2): > 10000 nM | Ki ([8]; Table 3-3): > 10000 nM | Ki ([8]; Table 3-4): > 10000 nM | Ki ([8]; Table 3-5): > 10000 nM | Ki ([8]; Table 3-6): > 10000 nM
